Reference: ChEMBL document CHEMBL1212821 (J Med Chem, 2010)

Legend:
[1] = molecular target: T1, Kinesin-like protein KIF11 (Homo sapiens, UniProt P52732); test: Inhibition of human kinesin Eg5
T1 sequence (P52732 whole entry): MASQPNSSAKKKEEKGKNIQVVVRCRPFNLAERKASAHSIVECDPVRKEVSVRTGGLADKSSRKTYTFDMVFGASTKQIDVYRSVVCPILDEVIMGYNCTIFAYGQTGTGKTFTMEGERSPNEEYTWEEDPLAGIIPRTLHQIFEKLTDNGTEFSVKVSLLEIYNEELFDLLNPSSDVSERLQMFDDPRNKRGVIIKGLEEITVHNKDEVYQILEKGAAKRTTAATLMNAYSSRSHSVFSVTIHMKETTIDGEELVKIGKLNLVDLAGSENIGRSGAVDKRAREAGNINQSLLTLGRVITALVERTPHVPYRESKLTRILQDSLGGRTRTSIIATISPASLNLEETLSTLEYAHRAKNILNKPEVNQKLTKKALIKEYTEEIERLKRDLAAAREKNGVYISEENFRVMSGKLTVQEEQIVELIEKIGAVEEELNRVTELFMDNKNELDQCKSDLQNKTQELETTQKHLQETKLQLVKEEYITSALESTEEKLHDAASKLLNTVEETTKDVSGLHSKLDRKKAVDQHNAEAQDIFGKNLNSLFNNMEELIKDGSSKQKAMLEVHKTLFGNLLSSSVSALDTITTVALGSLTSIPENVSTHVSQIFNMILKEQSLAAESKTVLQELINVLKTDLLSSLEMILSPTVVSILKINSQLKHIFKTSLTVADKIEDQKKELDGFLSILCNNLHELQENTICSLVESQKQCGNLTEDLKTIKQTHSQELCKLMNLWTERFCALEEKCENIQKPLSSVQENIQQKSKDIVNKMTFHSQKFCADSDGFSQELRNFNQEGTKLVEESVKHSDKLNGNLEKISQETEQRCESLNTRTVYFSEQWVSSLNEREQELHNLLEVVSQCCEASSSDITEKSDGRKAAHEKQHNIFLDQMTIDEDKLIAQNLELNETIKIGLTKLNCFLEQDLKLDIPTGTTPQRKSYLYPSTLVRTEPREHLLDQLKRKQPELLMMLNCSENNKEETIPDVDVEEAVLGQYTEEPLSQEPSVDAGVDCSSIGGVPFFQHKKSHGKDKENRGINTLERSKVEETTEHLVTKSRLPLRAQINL

[2] = tested on: HCT-116; test: Antiproliferative activity against human HCT116 cells after 72 hrs by Alamar blue assay
[3] = Antiproliferative activity against human hTERT-HME1 cells after 72 hrs by Alamar blue assay
[4] = tested on: BXPC-3; test: Antiproliferative activity against human BxPC3 cells after 72 hrs by Alamar blue assay
[5] = tested on: K562; test: Antiproliferative activity against human K562 cells after 72 hrs by Alamar blue assay
[6] = tested on: NCI-H1299; test: Antiproliferative activity against human NCI-H1299 cells after 72 hrs by Alamar blue assay
[7] = Antiproliferative activity against human KB3-1 cells after 72 hrs by Alamar blue assay; conditions: KB 3-1, 72 h
[8] = Antiproliferative activity against human KBV1 cells overexpressing MDR1 after 72 hrs by Alamar blue assay; conditions: KB-V1, 72 h
[9] = Drug resistant ratio of EC50 for human KBV1 cells overexpressing MDR1 to EC50 for KB3-1 cells; format: functional, cell-based
[10] = Antiproliferative activity against human KB3-1 cells after 72 hrs by Alamar blue assay in presence of zosuquidar; conditions: KB 3-1, 72 h
[11] = Antiproliferative activity against human KBV1 cells overexpressing MDR1 after 72 hrs by Alamar blue assay in presence of zosuquidar; conditions: KB-V1, 72 h

EC50 ([2]; Homo sapiens, HCT-116, 72 h)	EC50 ([4]; Homo sapiens, BXPC-3, 72 h)	EC50 ([5]; Homo sapiens, K562, 72 h)	EC50 ([6]; Homo sapiens, NCI-H1299, 72 h)	EC50 ([2]; hct-116)	EC50 ([4]; bxpc-3)	EC50 ([5]; k562)	EC50 ([6]; nci-h1299)	SMILES	EC50 ([3]; Homo sapiens, HME1, 72 h)	EC50 ([3]; hme1)	also measured
–	–	–	–	–	–	–	–	CCOC(=O)C1=C(C)NC(=S)N[C@@H]1c1cccc(O)c1	–	–	IC50 [1]: 30000 nM
951 nM	2160 nM	2620 nM	2390 nM	–	–	–	–	CC1=C(C(=O)c2ccc(F)cc2)C(c2cccc(O)c2)NC(=S)N1C (stereo unspecified)	2540 nM	–	–
1290 nM	2840 nM	2740 nM	2770 nM	–	–	–	–	CC1=C(C(=O)c2cccc(F)c2)C(c2cccc(O)c2)NC(=S)N1C (stereo unspecified)	2820 nM	–	–
–	–	–	–	387 nM	601 nM	1150 nM	1360 nM	CC1=C(C(=O)c2ccc(F)c(F)c2)C(c2cccc(O)c2)NC(=S)N1C (racemic)	–	247 nM	EC50 [7]: 832 nM; EC50 [8]: 2080 nM; ratio [9]: 2.5; EC50 [10]: 800 nM; EC50 [11]: 671 nM
1810 nM	2070 nM	4780 nM	4900 nM	–	–	–	–	O=C1CCCC2=C1C(c1cccc(O)c1)NC(=S)N2 (racemic)	2440 nM	–	–
24200 nM	> 100 nM	> 100 nM	> 100 nM	–	–	–	–	CCOC(=O)C1=C(C)NC(=S)NC1c1cccc(O)c1 (racemic) [MONASTROL]	45100 nM	–	EC50 [7]: 85100 nM; EC50 [8]: 99100 nM; ratio [9]: 1.2; EC50 [10]: 56500 nM; EC50 [11]: 45400 nM
–	–	–	–	15200 nM	33700 nM	26600 nM	33000 nM	CC1=C(C(=O)c2ccc(F)c(F)c2)C(c2cccc(O)c2)NC(=S)N1C (stereo in doubt; form 1)	–	> 100 nM	–
–	–	–	–	1830 nM	5000 nM	5690 nM	6890 nM	CC1=C(C(=O)c2ccccc2)C(c2cccc(O)c2)NC(=S)N1C (stereo in doubt; form 1)	–	1780 nM	–
–	–	–	–	327 nM	736 nM	820 nM	783 nM	CC1=C(C(=O)c2ccc(F)c(F)c2)C(c2cccc(O)c2)NC(=S)N1C (stereo in doubt; form 2)	–	223 nM	–
–	–	–	–	6500 nM	14400 nM	11400 nM	18100 nM	CC1=C(C(=O)c2ccccc2)C(c2cccc(O)c2)NC(=S)N1C (stereo in doubt; form 2)	–	> 50000 nM	–
–	–	–	–	1740 nM	3600 nM	3700 nM	4610 nM	CC1=C(C(=O)c2ccccc2)C(c2cccc(O)c2)NC(=S)N1C (stereo in doubt; form 3)	–	1190 nM	–
–	–	–	–	–	–	–	–	CC[C@]1(O)C[C@@H]2CN(CCc3c([nH]c4ccccc34)[C@@](C(=O)OC)(c3cc4c(cc3OC)N(C)[C@H]3[C@@](O)(C(=O)OC)[C@H](OC(C)=O)[C@]5(CC)C=CCN6CC[C@]43[C@@H]65)C2)C1 [VINBLASTINE]	–	–	EC50 [7]: 12.6 nM; EC50 [8]: 2040 nM; ratio [9]: 162; EC50 [10]: 8.5 nM; EC50 [11]: 13 nM
